The text below walks through data of PubChem BioAssay AID2053 (NMMLSC, 2009).

The target in the assay is GTPase HRas (Homo sapiens) (UniProt P01112). As to the kind of experiment: blockade of Bodipy-GTP loading onto wild-type Ras – biochemical, oxadiazole analogs, multiplex bead flow cytometry, SAR follow-up (AID 2053). The conditions noted are these: GST-Ras beads, Bodipy-FL-GTP binding, Ki calculated from EC50.

The term Ki denotes the dissociation constant of the complex between target and ligand, obtained from inhibition or displacement.

The structures appear in SMILES notation.

Chain of GTPase HRas (Homo sapiens) (P01112 whole entry, looked up): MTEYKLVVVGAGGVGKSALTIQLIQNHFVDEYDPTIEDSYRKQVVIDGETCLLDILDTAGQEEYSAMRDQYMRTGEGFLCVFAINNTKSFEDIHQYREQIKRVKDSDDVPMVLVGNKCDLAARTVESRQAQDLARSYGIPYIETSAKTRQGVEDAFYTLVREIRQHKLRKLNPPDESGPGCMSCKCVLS

For the compound `Cc1ccc(C)c(N2CCN(C(=O)CCc3nc(-c4ccccc4Br)no3)CC2)c1`, the inhibitory constant (Ki) was 0.01 µM.
For the compound `Cc1ccc(C)c(N2CCN(C(=O)CCc3nc(-c4ccccc4)no3)CC2)c1`, the Ki was 0.14 µM.
`COc1cccc(-c2noc(CCC(=O)N3CCN(c4cc(C)ccc4C)CC3)n2)c1`: the Ki is 0.23 µM.
For `Cc1ccc(C)c(N2CCN(C(=O)CCc3nc(-c4ccc(Br)cc4)no3)CC2)c1`, the Ki was 0.29 µM.
Under `COc1ccc(-c2noc(CCC(=O)N3CCN(c4ccccc4Cl)CC3)n2)cc1` stands 0.29 µM; under `COc1ccc(-c2noc(CCC(=O)N3CCN(c4cc(C)ccc4C)CC3)n2)cc1`, 0.27 µM; under `COc1ccc(-c2noc(CCC(=O)N3CCN(c4ccccc4F)CC3)n2)cc1`, 0.01 µM.
